Laboratory results from US12215116B2, “Arginase inhibitors and methods of use” (Merck Sharp & Dohme LLC, priority 2018, dated 2025).
Structures can show the parent of a compound that is named as a salt.

molecular target: T1, Arginase (ARG1 enzyme) (Homo sapiens, UniProt P05089); assay: Arginase Thioornithine Generating Assay (TOGA); type: biochemical; details: 1.88 nM arginase, thioarginine substrate, fluorescence readout
T1 construct: made in house; host or cells: Escherichia coli
T1 sequence (P05089 1-322): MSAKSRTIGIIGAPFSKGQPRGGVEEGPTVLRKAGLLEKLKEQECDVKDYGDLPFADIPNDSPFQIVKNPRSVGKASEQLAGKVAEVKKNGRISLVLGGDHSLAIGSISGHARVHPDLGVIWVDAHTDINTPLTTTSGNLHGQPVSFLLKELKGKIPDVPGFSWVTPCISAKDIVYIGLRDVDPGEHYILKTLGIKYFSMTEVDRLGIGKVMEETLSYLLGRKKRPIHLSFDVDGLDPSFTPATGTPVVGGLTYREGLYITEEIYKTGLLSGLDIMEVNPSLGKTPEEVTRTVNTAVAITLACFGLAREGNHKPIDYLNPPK
Protocol: Arginase Thioornithine Generating Assay (TOGA)
Compounds were serially diluted in ten 3-fold steps in DMSO starting from 10 mM DMSO stocks. Compound dilutions or DMSO alone were then dispensed from the dilution plate into a Greiner black 384-well assay plate (catalog #781086) using an Echo 555 acoustic liquid handler (Labcyte).
Arginase protein was recombinantly expressed in Escherichia coli. Purified protein was then diluted in assay buffer (50 mM Tris pH 7.5, 50 mM NaCl, 1 mM manganese chloride, 0.05% bovine serum albumin to obtain a final Arginase concentration of 1.88 nM. Arginase solution (20 μL) or buffer alone (20 μL) were dispensed to wells of the assay plate using a BioRAPTR liquid dispenser (Beckman Coulter). Assay plates containing compound and ARG1 enzyme were incubated at room temperature for 30 minutes. Afterwards, 5 μL of 2.5 mM thioarginine (Cayman Chemicals) in assay buffer were added to each well of the assay plate using a BioRAPTR liquid dispenser. Plates were incubated at room temperature for 60 minutes and reactions were quenched by addition of 15 μL of […] 7-Diethylamine-3-(4-maleimidophenyl)-4-methylcoumarin (Sigma Chemical) in 70% ethanol. Plates were briefly shaken to mix and the fluorescence was measured in an Spectramax plate reader (Molecular Devices) with a 410 nm excitation wavelength and an 490 nm emission wavelength.
Potencies were calculated by […] to the four parameter logistic IC50 equation.

| Compound | IC50 [nM] |
| --- | --- |
| CC(C)[C@@H](N)C(=O)N[C@H]1CN[C@H](C(=O)O)[C@@H]1CCCB(O)O [Example 46, (2S,3R,4R)-4-((R)-2-amino-3-methylbutanamido)-3-(3-boronopropyl)pyrrolidine-2-carboxylic acid] | 35.4 |
| CN[C@H]1CN[C@H](C(=O)O)[C@@H]1CCCB(O)O [Example 29, (2S,3R,4R)-3-(3-boronopropyl)-4-(methylamino)pyrrolidine-2-carboxylic acid] | 20.1 |
| O=C(O)[C@H]1NC[C@H](N2CCCC2)[C@H]1CCCB(O)O [Example 25, (3′R,4′S,5′S)-4′-(3-boronopropyl)-[1,3′-bipyrrolidine]-5′-carboxylic acid] | 522 |
| NCC1CN[C@H](C(=O)O)C1CCCB(O)O (stereo partly drawn) [Example 34, (2S)-4-(aminomethyl)-3-(3-boronopropyl)pyrrolidine-2-carboxylic acid] | 3450 |
| O=C(O)C1NCCNC1CCCB(O)O (centres unmarked) [Example 7, 3-[3-(dihydroxyboranyl)propyl]piperazine-2-carboxylic acid] | 99000 |
| CCN[C@H]1CN[C@H](C(=O)O)[C@@H]1CCCB(O)O [Example 30, (2S,3R,4R)-3-(3-boronopropyl)-4-(ethylamino)pyrrolidine-2-carboxylic acid] | 84.5 |
| N[C@H](C(=O)N[C@H]1CN[C@H](C(=O)O)[C@@H]1CCCB(O)O)C1CCCC1 [Example 40, (2S,3R,4R)-4-((S)-2-amino-2-cyclopentylacetamido)-3-(3-boronopropyl)pyrrolidine-2-carboxylic acid] | 0.778 |
| O=C(O)C1(CCN2CCCCC2)NCCCC1CCCB(O)O (centres unmarked) [Example 2, 3-[3-(dihydroxyboranyl)propyl]-2-[2-(piperidin-1-yl)ethyl]piperidinyl-2-carboxylic acid] | 396 |
| O=C(O)C1CNCCC1CCCB(O)O (centres unmarked) [Example 6, 4-[3-(dihydroxyboranyl)propyl]piperidinyl-3-carboxylic acid] | 57500 |
| O=C(O)C1(CCN2CCCCC2)NCCC1CCCB(O)O (centres unmarked) [Example 11, 3-(3-boronopropyl)-2-(2-(piperidin-1-yl)ethyl)pyrrolidine-2-carboxylic acid] | 84 |
| O=C(O)[C@H]1NCCC1CCCB(O)O (stereo partly drawn) [Example 9, 3-[3-(dihydroxyboranyl)propyl]-L-proline] | 113 |
| O=C(N[C@H]1CN[C@H](C(=O)O)[C@@H]1CCCB(O)O)[C@@H]1CCCN1 [Example 49, (2S,3R,4R)-3-(3-boronopropyl)-4-((S)-pyrrolidine-2-carboxamido)pyrrolidine-2-carboxylic acid] | 13 |
| CC(C)(O)[C@H](N)C(=O)N[C@H]1CN[C@H](C(=O)O)[C@@H]1CCCB(O)O [Example 39, (2S,3R,4R)-4-((S)-2-amino-3-hydroxy-3-methylbutanamido)-3-(3-boronopropyl)pyrrolidine-2-carboxylic acid] | 10.2 |
| CC[C@@H](C)[C@H](N)C(=O)N[C@H]1CN[C@H](C(=O)O)[C@@H]1CCCB(O)O [Example 44, (2S,3R,4R)-4-((2S,3R)-2-amino-3-methylpentanamido)-3-(3-boronopropyl)pyrrolidine-2-carboxylic acid] | 2 |
| C[C@@H]1C[C@@H](CCCB(O)O)[C@@H](C(=O)O)N1 [Example 64, (2S,3R,5R)-3-(3-boronopropyl)-5-methylpyrrolidine-2-carboxylic acid] | 6.62 |
| O=C(O)C1CC(CCB(O)O)CCN1 (centres unmarked) [Example 4, 4-[2-(dihydroxyboranyl)ethyl]piperidinyl-2-carboxylic acid] | 19800 |

| Compound | IC50 [nM] |
| --- | --- |
| CN1C[C@@](CO)(CCCB(O)O)[C@H]1C(=O)O [Example 66, (2S,3S)-3-(3-boronopropyl)-3-(hydroxymethyl)-1-methylazetidine-2-carboxylic acid] | 269 |
| CC(=O)N[C@H]1CN[C@H](C(=O)O)[C@@H]1CCCB(O)O [Example 50, (2S,3R,4R)-4-acetamido-3-(3-boronopropyl)pyrrolidine-2-carboxylic acid] | 247 |
| CN[C@H](C(=O)N[C@H]1CN[C@H](C(=O)O)[C@@H]1CCCB(O)O)C(C)C [Example 43, (2S,3R,4R)-3-(3-boronopropyl)-4-((S)-3-methyl-2-(methylamino)butanamido)pyrrolidine-2-carboxylic acid] | 2.98 |
| CC1CC(CCCB(O)O)[C@@H](C(=O)O)N1 (some centres unmarked) [Example 17, 3-[3-(dihydroxyboranyl)propyl]-5-methylproline] | > 10000 |
| C[C@]1(CCCB(O)O)[C@@H](C(=O)O)NC[C@@H]1C(F)F [Example 81, (2S,3R,4R)-3-(3-boronopropyl)-4-(difluoromethyl)-3-methylpyrrolidine-2-carboxylic acid] | 139 |
| CNC[C@@]1(CCCB(O)O)CCN[C@@H]1C(=O)O [Example 87, (2S,3R)-3-(3-boronopropyl)-3-((methylamino)methyl)pyrrolidine-2-carboxylic acid] | 7 |
| N#C[C@@]1(CCCB(O)O)CCN[C@@H]1C(=O)O [Example 88, (2S,3S)-3-(3-boronopropyl)-3-cyanopyrrolidine-2-carboxylic acid] | 13.4 |
| CC(C)[C@H](N)C(=O)N[C@H]1CN[C@H](C(=O)O)[C@]1(C)CCCB(O)O [Example 70, (2S,3R,4R)-4-((S)-2-amino-3-methylbutanamido)-3-(3-boronopropyl)-3-methylpyrrolidine-2-carboxylic acid] | 83 |
| O=C(O)C1NCCCC1OCCB(O)O (centres unmarked) [Example 3, 3-[2-(dihydroxyboranyl)ethoxy]piperidinyl-2-carboxylic acid] | > 10000 |
| NC[C@@]1(CCCB(O)O)CN[C@@H]1C(=O)O [Example 67, (2S,3S)-3-(aminomethyl)-3-(3-boronopropyl)azetidine-2-carboxylic acid] | 8 |
| O=C(O)[C@H]1NCC(CO)[C@H]1CCCB(O)O (stereo partly drawn) [Example 91, (2S,3R)-3-(3-boronopropyl)-4-(hydroxymethyl)pyrrolidine-2-carboxylic acid] | 20 |
| CNC[C@@H]1C[C@@H](CCCB(O)O)[C@@H](C(=O)O)N1 [Example 62, (2S,3R,5S)-3-(3-boronopropyl)-5-((methylamino)methyl)pyrrolidine-2-carboxylic acid] | 34.9 |
| O=C(O)[C@H]1NCC[C@H]1SCCB(O)O [Example 93, (2R,3R)-3-((2-boronoethyl)thio)pyrrolidine-2-carboxylic acid hydrochloride] | 92.1 |
| CN(C)C[C@@H]1C[C@@H](CCCB(O)O)[C@@H](C(=O)O)N1 [Example 61, (2S,3R,5S)-3-(3-boronopropyl)-5-((dimethylamino)methyl)pyrrolidine-2-carboxylic acid] | 439 |
| O=C(O)C1NCCCC1CCCB(O)O (centres unmarked) [Example 1, 3-[3-(dihydroxyboranyl)propyl]piperidinyl-2-carboxylic acid] | 660 |

Other lines, results leading:

| IC50 [nM] | Compound |
| --- | --- |
| 133 | O=C(O)[C@]1(CO)NCC[C@H]1CCCB(O)O (single isomer, unassigned) [Example 59B] |
| 18 | O=C(O)[C@H]1NCC[C@H]1CCCB(O)O (single isomer, unassigned) [Example 9A] |
| 377 | O=C(O)[C@H]1NCCC[C@H]1CCCB(O)O (single isomer, unassigned) [Example 1B] |
| > 10000 | O=C(O)C1CNCC1CCCB(O)O (single isomer, unassigned) [Example 21A, 4-[3-(dihydroxyboranyl)propyl]pyrrolidine-3-carboxylic acid] |
| 3660 | O=C(O)[C@@H]1NCCC[C@@H]1CCCB(O)O (single isomer, unassigned) [Example 1A] |
| 8040 | O=C(O)C1NCC[C@@H]1CCCB(O)O (single isomer, unassigned) [Example 9B] |
| > 10000 | C[C@H]1N[C@H](C(=O)O)[C@](C)(CCCB(O)O)[C@@H]1O [Example 74B] |
| 475 | O=C(O)[C@H]1NC[C@@H](O)[C@@H]1CCCB(O)O (single isomer, unassigned) [Example 20A] |
| 83300 | O=C(O)[C@@H]1NCCC[C@H]1CCCB(O)O [Example 1C, (2R,3R)-3-[3-(dihydroxyborany)propy]piperidinyl-2-carboxylic acid] |
| > 10000 | N[C@]1(C(=O)O)CNC[C@]1(CO)CCCB(O)O [Example 94D] |
| 112 | NC[C@]1(C(=O)O)NCC[C@H]1CCCB(O)O (relative stereo) [Example 57A, 2-(aminomethyl)-3-(3-boronopropyl)pyrrolidine-2-carboxylic acid] |
| 1780 | NC[C@H]1C[C@H](CCCB(O)O)[C@H](C(=O)O)N1 [Example 60B, (2R,3S,5R)-5-(aminomethyl)-3-(3-boronopropyl)pyrrolidine-2-carboxylic acid] |
| 2260 | C[C@@]1(C(=O)O)NCC[C@@H]1CCCB(O)O [Example 16B, (3S)-3-[3-(dihydroxyboranyl)propyl]-2-methyl-D-proline] |
